This is an account of results in PubChem BioAssay AID248 (DTP/NCI, 2004).

Toxic doses and inconclusive results are not listed.

The assay has as its system L1210 leukemia ip in BDF1 mice, survival T/C. As to the kind of experiment: NCI In Vivo Anticancer Drug Screen. Data for tumor model L1210 Leukemia (intraperitoneal) in B6D2F1 (BDF1) mice. The settings on record: endpoint: mean survival time, higher = longer survival. In outline:
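Antitumor effect is assessed in tumor-bearing animals. Survival in the compound arm is compared with a vehicle-dosed control arm and expressed as their quotient.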

[1] abbreviates: dose: 100.0 mg/kg/injection, schedule: Q04DX003 (ip), vehicle: Klucel (hydroxypropylcellulose) (HPC).
Where [2] appears, read: dose: 200.0 mg/kg/injection, schedule: Q04DX003 (ip), vehicle: Klucel (hydroxypropylcellulose) (HPC).
Where [3] appears, read: dose: 400.0 mg/kg/injection, schedule: Q04DX003 (ip), vehicle: Klucel (hydroxypropylcellulose) (HPC).
Where [4] appears, read: dose: 100.0 mg/kg/injection, schedule: Q01DX001 (ip), vehicle: saline.
Setting [5] is: dose: 200.0 mg/kg/injection, schedule: Q01DX001 (ip), vehicle: saline.
The mark [6] stands for this setting: dose: 400.0 mg/kg/injection, schedule: Q01DX001 (ip), vehicle: saline.
Setting [7] is: dose: 400.0 mg/kg/injection, schedule: Q01DX009 (ip), vehicle: Klucel (hydroxypropylcellulose) (HPC).

As to `Cc1cccc(C)c1OCC1=NCCN1`, the T/C (dose: 12.0 mg/kg/injection, schedule: Q01DX009 (ip), vehicle: saline) is 105 % of control; the T/C (dose: 25.0 mg/kg/injection, schedule: Q01DX009 (ip), vehicle: saline) is 111 % of control; the T/C (dose: 50.0 mg/kg/injection, schedule: Q01DX009 (ip), vehicle: saline) is 108 % of control.
`O=C1CC(c2ccccc2)C2(c3ccccc3)OC12` (stereo not given): the T/C (dose: 100.0 mg/kg/injection, schedule: Q01DX001 (ip), vehicle: saline with Tween-80) was 101 % of control; the T/C (dose: 200.0 mg/kg/injection, schedule: Q01DX001 (ip), vehicle: saline with Tween-80) is 94 % of control; the T/C (dose: 400.0 mg/kg/injection, schedule: Q01DX001 (ip), vehicle: saline with Tween-80) is 111 % of control.
For the compound `C=C=C[P+](c1ccccc1)(c1ccccc1)c1ccccc1`, the T/C (dose: 5.0 mg/kg/injection, schedule: Q01DX001 (ip), vehicle: saline) was 104 % of control; the T/C (dose: 10.0 mg/kg/injection, schedule: Q01DX001 (ip), vehicle: saline) is 98 % of control; the T/C (dose: 20.0 mg/kg/injection, schedule: Q01DX001 (ip), vehicle: saline) is 101 % of control; the T/C (dose: 40.0 mg/kg/injection, schedule: Q01DX001 (ip), vehicle: saline) is 124 % of control.
Consider `CN(C)C1c2cc(Cl)ccc2-c2c(Cl)cc(Cl)cc21` (stereo not given), for which the T/C reads like this: (dose: 50.0 mg/kg/injection, schedule: Q01DX001 (ip), vehicle: carboxymethylcellulose (CMC)) 100 % of control; (dose: 100.0 mg/kg/injection, schedule: Q01DX001 (ip), vehicle: carboxymethylcellulose (CMC)) 102 % of control; (dose: 200.0 mg/kg/injection, schedule: Q01DX001 (ip), vehicle: carboxymethylcellulose (CMC)) 100 % of control; (dose: 400.0 mg/kg/injection, schedule: Q01DX001 (ip), vehicle: carboxymethylcellulose (CMC)) 105 % of control.
Consider `CC(=O)Nc1cc(Cl)ccc1Cl`, for which the T/C reads like this: under setting [1], 102 % of control; under setting [2], 88 % of control; under setting [3], 102 % of control.
On to `CC(C)C[As](=O)(O)O`, for which the T/C is, setting by setting: under setting [1], 106 % of control; under setting [2], 95 % of control.
As to `Cn1cc(C(=O)O)c(=O)c2ccc(/C=C/c3ccc([N+](=O)[O-])o3)nc21`, the T/C reads like this: under setting [4], 92 % of control; under setting [5], 101 % of control; under setting [6], 103 % of control.
Take `Nc1nc(N)c2c(Cl)c(CNc3ccc(C(=O)NC(CC(=O)O)CC(=O)O)cc3)ccc2n1`: the T/C is 157 % of control (dose: 12.5 mg/kg/injection, schedule: Q04DX003 (ip), vehicle: saline); 178 % of control (dose: 25.0 mg/kg/injection, schedule: Q04DX003 (ip), vehicle: saline); 90 % of control (dose: 50.0 mg/kg/injection, schedule: Q04DX003 (ip), vehicle: saline).
Consider `N#CC(C#N)=C/C=C/c1cccc([N+](=O)[O-])c1`, for which the T/C (dose: 38.0 mg/kg/injection, schedule: Q01DX009 (ip), vehicle: saline) was 102 % of control.
In the case of `Cc1ccc2c(c1)-c1[nH]c3ccccc3c1CS2`, the T/C reads like this: (dose: 100.0 mg/kg/injection, schedule: Q04DX003 (ip), vehicle: acetone) 105 % of control; (dose: 200.0 mg/kg/injection, schedule: Q04DX003 (ip), vehicle: acetone) 110 % of control.
Turning to `CC1CCCCN1C(=O)CCCCl` (stereo not given), the T/C runs as follows: (dose: 100.0 mg/kg/injection, schedule: Q04DX002 (ip), vehicle: saline) 111 % of control; (dose: 200.0 mg/kg/injection, schedule: Q04DX002 (ip), vehicle: saline) 101 % of control; (dose: 400.0 mg/kg/injection, schedule: Q04DX002 (ip), vehicle: saline) 88 % of control.
On to `Cc1ccc(CCCC#N)[nH]1`, for which the T/C reads like this: (dose: 100.0 mg/kg/injection, schedule: Q01DX001 (sc), vehicle: carboxymethylcellulose (CMC)) 110 % of control; (dose: 200.0 mg/kg/injection, schedule: Q01DX001 (sc), vehicle: carboxymethylcellulose (CMC)) 113 % of control.
With `NC(=O)NCCO`, the T/C reads like this: under setting [4], 98 % of control; under setting [5], 106 % of control; under setting [6], 98 % of control.
Regarding `Cc1cc(S(=O)(=O)Cl)c(Cl)cc1Cl`, the T/C under setting [4] is 96 % of control, the T/C under setting [5] was 103 % of control and the T/C under setting [6] was 96 % of control.
As for `CCOC(=O)C1C(c2ccccc2)C1c1ccc(C)cc1` (stereo not given), the T/C is, setting by setting: (dose: 25.0 mg/kg/injection, schedule: Q04DX002 (ip), vehicle: saline with Tween-80) 103 % of control; (dose: 50.0 mg/kg/injection, schedule: Q04DX002 (ip), vehicle: saline with Tween-80) 103 % of control; (dose: 100.0 mg/kg/injection, schedule: Q04DX002 (ip), vehicle: saline with Tween-80) 98 % of control.
Consider `COC(=O)C1(C)CCCC2(C)C1CCC13OCC(CC21)C1(C(C)C)OC31` (stereo not given), for which the T/C is, setting by setting: (dose: 100.0 mg/kg/injection, schedule: Q01DX009 (ip), vehicle: saline with Tween-80) 96 % of control; (dose: 200.0 mg/kg/injection, schedule: Q01DX009 (ip), vehicle: saline with Tween-80) 93 % of control; (dose: 400.0 mg/kg/injection, schedule: Q01DX009 (ip), vehicle: saline with Tween-80) 95 % of control.
As to `C(=C\c1nc2ccccc2nc1/C=C/c1ccc2c(c1)OCO2)/c1ccc2c(c1)OCO2`, the T/C (dose: 12.5 mg/kg/injection, schedule: Q01DX009 (ip), vehicle: Klucel (hydroxypropylcellulose) (HPC)) is 95 % of control; the T/C (dose: 25.0 mg/kg/injection, schedule: Q01DX009 (ip), vehicle: Klucel (hydroxypropylcellulose) (HPC)) was 92 % of control; the T/C (dose: 50.0 mg/kg/injection, schedule: Q01DX009 (ip), vehicle: Klucel (hydroxypropylcellulose) (HPC)) is 100 % of control; the T/C under setting [1] is 102 % of control; the T/C under setting [2] was 96 % of control; the T/C under setting [7] was 86 % of control. The T/C under setting [3] is 95 % of control.
As for `O=c1[nH][nH]c(=O)c2cc3ccccc3cc12`, the T/C reads like this: (dose: 62.5 mg/kg/injection, schedule: Q01DX009 (ip), vehicle: Klucel (hydroxypropylcellulose) (HPC)) 98 % of control; (dose: 125.0 mg/kg/injection, schedule: Q01DX009 (ip), vehicle: Klucel (hydroxypropylcellulose) (HPC)) 105 % of control.
On to `CC(C)(C)C(N)=O`, for which the T/C (dose: 100.0 mg/kg/injection, schedule: Q01DX009 (ip), vehicle: Klucel (hydroxypropylcellulose) (HPC)) was 92 % of control; the T/C (dose: 100.0 mg/kg/injection, schedule: Q04DX003 (ip), vehicle: other) was 94 % of control; the T/C (dose: 200.0 mg/kg/injection, schedule: Q01DX009 (ip), vehicle: Klucel (hydroxypropylcellulose) (HPC)) is 90 % of control; the T/C (dose: 200.0 mg/kg/injection, schedule: Q04DX003 (ip), vehicle: other) was 98 % of control; the T/C under setting [7] was 95 % of control; the T/C (dose: 400.0 mg/kg/injection, schedule: Q04DX003 (ip), vehicle: other) is 98 % of control.
